Results reported in patent publication US11407811B2, “Fusion protein, preparation method therefor and use thereof” (JIANGSU RONGTAI BIOTECH CO., LTD., priority 2017, dated 2022).

Assays:
[1] = test system: toe swelling in rat induced by carrageenan; assay: Acute inflammation of toe swelling in rat induced by carrageenan; type: in vivo; conditions: 10 mg/kg (positive control), rat foot
Protocol: 80 SD rats were randomly divided into 8 groups with 10 mice for each group. […] The drug was administered once by injection, and the model group was given an equal volume of physiological saline and fed normally. On the third day, 0.1 mL of 1% carrageenan was injected subcutaneously into the right hind toes of the rats to induce inflammation. The foot volume was measured at 1 h, 3 h, 5 h, and 7 h after inflammation. The swelling degree of the foot was calculated according to the following formula: the swelling degree of the foot (mL)=the volume of the foot after inflammation—the volume before inflammation. The number of milliliters of spilled liquid was recorded (method: the protruding point of the right joint was circled with a ballpoint pen and used as a measurement mark, and the right hind feet of the rat were sequentially placed in the volume measuring device, so that the hind limbs were exposed outside the cylinder, and the depth of the immersion was limited to the overlap of the circle and the liquid level. After the foot entered the liquid, the liquid level was raised, and the volume of the spilled liquid was the volume of the right hind foot of the rat, and the normal volume of the right hind foot of each rat is sequentially determined).

mouse spleen lymphocytes = assay: Proliferation of mouse spleen lymphocytes (ConA, MTT); type: cell-based; conditions: dose 20 μg/mL
Protocol: Tris-NH4Cl was used to break the red blood cells, which were allowed to stand in an ice water bath for 4 min and centrifuged (1000 rpm, 5 min), the supernatant was discarded, and the cells were washed twice with sterile PBS.
The cells were statically cultured in a cell incubator at 37° C. for 48 h. After the completion of the culture, 20 μL of MTT was added to each well, and the culture was continued for 4 h. Finally, all the solutions in each well were discarded, 100 μL of DMSO was added to each well, and the mixture was shaken and detected by a microplate reader for OD value at 570 nm. 5 parallels were preformed for per well.

[2] = test system: peritoneal capillary permeability in mice; assay: Peritoneal capillary permeability in mice (HAc, Evans blue); type: in vivo; conditions: mice, dose 10 mg/kg
Protocol: The drug was administered once by injection (EDSM needed to be administered twice a day), and the blank model group was given an equal volume of physiological saline and fed normally. On the 5th day, a 5 g/L Evans blue physiological saline solution was injected into the tail vein at […], followed by intraperitoneal injection ([…]) of a HAc solution (6 mL/L) to induce inflammation. After 20 min, the mice were sacrificed by cervical dislocation. 5 mL of physiological saline was intraperitoneally injected, the abdomen was gently rubbed for 2 min, the abdominal cavity was cut, a peritoneal washing solution was collected and centrifuged at 4000 rpm for 10 min, 1 mL of supernatant was taken, and 3 mL of physiological saline was added to obtain 4 mL of dilution. The absorbance OD value of the dilution was measured by an ultraviolet spectrophotometer at a wavelength of 590 nm, and the amount of pigment exudation was expressed by the OD590 nm value, and the peritoneal capillary permeability in mice was examined.

[3] = test system: IL-1β production by mouse peritoneal macrophages; assay: IL-1β production by mouse peritoneal macrophages (ELISA); type: cell-based; conditions: dose 20 μg/mL
Protocol: (1) IL-1β production: mice were intraperitoneally injected with 1 mL of broth medium containing 6% starch, and three days later, the mouse peritoneal macrophages were aseptically taken, washed twice with a 1640 medium, and the cell concentration was adjusted to 2×10^6 cells/mL, inoculated into a 24-well culture plate at 1 mL/well, incubated for 3 h in a cell incubator, and shaken once every 30 min, so that the cells were allowed to adhere sufficiently. Then, the cells were washed twice with a culture liquid to remove un-adhered cells. […] The supernatant was taken as a sample for testing activity of IL-1β.
(2) Determination of IL-1β content: the detection was performed by using mouse IL-1β enzyme-linked immunosorbent assay kit from R&D company. According to the instructions of the kit, the procedures were as follows: the reaction well for the test samples and different concentrations of standards were sealed with sealing tapes, respectively, incubation was performed at 37° C. for 90 min; the plate was washed four times; a biotinylated antibody working solution (100 μL/well) was added, the reaction well was sealed with sealing tapes, and incubation was performed at 37° C. for 60 min; the plate was washed four times; an enzyme conjugate working solution (100 μL/well) was added, the reaction well was sealed with sealing tapes, incubation was performed at 37° C. for 30 min; the plate was washed four times; a developer (100 μL/well) was added, incubation was performed at 37° C. for 10 to 20 min, a stop solution (100 μL/well) was added and mixed and the OD450 value was measured.

[4] = test system: angiogenesis of chicken embryo chorioallantoic membrane; assay: Chicken embryo chorioallantoic membrane (CAM) angiogenesis assay; type: in vivo; conditions: 10 μg (positive control), CAM, 72 hours
Description: In this study, CAM assay was used to investigate the activity of fusion protein I, protein II, protein III, protein IV, and protein V to inhibit angiogenesis in vivo. The study has shown that the biosynthesis rate of collagen reached the maximum on the 8th to 11th day of chicken embryo development, which was the most vigorous stage of angiogenesis, and the body's immune system had not yet been fully established at that time, and thus the chicken embryos developed to the 8th day was selected to be administered. […] The following steps were used.
(1) The White Leghorn chicken embryos on day 6 were cultured in a 37° C. incubator at 60%-70% humidity for two days.
(2) A 1.0 cm×1.0 cm window was drilled above the chicken embryo air sac, and the inner membrane was torn off with forceps to expose the chorioallantoic membrane. Lens paper having a diameter of 5 mm was used as a loading carrier, and was placed on the chorioallantoic membrane of the chicken embryo air sac. Filter paper with PBS was used as a blank group, and the administration group was added with different doses of fusion protein.
(3) The chicken embryo air sac was sealed with a sterile transparent tape, and after culturing at 37° C. for 72 hours, the chicken embryo air sac was opened, and a fixative (formaldehyde:acetone=1:1) was added for fixation for 15 minutes. The chorioallantoic membrane to which the lens paper was adhered was taken out, the distribution of the new blood vessels was observed, and the new blood vessels were counted and photographed. Five replicates were set for each dose and the results were statistically analyzed.

| Compound | Swelling degree 1 h ([1]; 1 h after carrageenan) [mL] | Swelling degree 3 h ([1]; 3 h after carrageenan) [mL] | Swelling degree 5 h ([1]; 5 h after carrageenan) [mL] | Swelling degree 7 h ([1]; 7 h after carrageenan) [mL] | A570 nm/A630 nm (mouse spleen lymphocytes) | PI (%) (mouse spleen lymphocytes) | Exudation rate (OD590) [2] | IL-1β [3] [pg/mL] | PI (%) [3] [%] | Blood vessel number [4] |
| --- | --- | --- | --- | --- | --- | --- | --- | --- | --- | --- |
| C[C@@H]1C[C@H]2[C@@H]3CCC4=CC(=O)C=C[C@]4(C)[C@@]3(F)[C@@H](O)C[C@]2(C)[C@@]1(O)C(=O)CO [Dex, dexamethasone, reference compound] | 0.21 ± 0.11 | 0.23 ± 0.04 | 0.25 ± 0.09 | 0.27 ± 0.12 | 0.3401 ± 0.1131 | 41.19 | 0.22 ± 0.03 | 310.25 ± 20.32 | 63.36 | – |
| Avastin: positive control group in HRCEC and CAM assays [reference compound] | – | – | – | – | – | – | – | – | – | 57 ± 16 |
